Source: EP1137645B1, “ALPHA-METHYLBENZYL-CONTAINING THIOUREA INHIBITORS OF HERPES VIRUSES CONTAINING A […] GROUP” (Wyeth, priority 1998, dated 2000)
In brackets after ≈: the same amount, converted by molar mass. Where two headings read alike, the source gives them in different places.

Experiments:
[1] = tested on: VZV strain Ellen; assay: VZV antiviral (ELISA) assay; assay type: cell-based; settings: for IC50: read-out: IC50 (ug/ml) VZV
In short: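 HFF cells infected with VZV Ellen at multiplicity below 0.1 overnight, then mixed infected/uninfected cells seeded with compound in DMEM/2% FBS and incubated three days at 37°C, 5% CO2.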

[2] = tested on: HCMV recombinant mutant virus whose genome contains the prokaryotic beta-glucuronidase gene; assay: microbe, parasite or virus in culture; assay type: cell-based, human cytomegalovirus; settings: Human betaherpesvirus 5, Fibroblast
In short: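 Human foreskin fibroblasts infected with HCMV recombinant carrying beta-glucuronidase under a viral promoter (e.g. RV145) in presence of compound. At 96 h post-infection, lysates assayed for beta-glucuronidase by colorimetric or fluorogenic substrate as replication readout; IC50 estimated from varying compound amounts.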

[3] = tested on: HSV- I; assay: HSV antiviral (ELISA) assay; assay type: cell-based; settings: HSV- I, Vero cells, ELISA; read-out: IC50 (ug/ml) HSV
In short: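 Vero cells in DMEM with 2% FBS treated with compound 30 min before HSV-1 infection (MOI 0.006), then incubated ~24 h at 37°C. Viral replication measured by ELISA against glycoprotein D with β-galactosidase-linked secondary and fluorogenic substrate (ex 365/em 450 nm); IC50 relative to untreated fluorescence.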

[4] = Human alphaherpesvirus 3, HFF, read-out: % inhibition 10 ug/ml VZV
[5] = read-out: IC50 ug/ml HCMV, HCMV, human foreskin fibroblasts
[6] = Human alphaherpesvirus 3, read-out: % inhibition 10 ug/ml VZV, 10 ug/ml, VZV strain Ellen, HFF cells, ELISA
[7] = Human alphaherpesvirus 3, VZV strain Ellen, HFF cells, ELISA

SMILES	inhibition at 10 µg/mL [1, 4] [%]	IC50 ([1]; Human alphaherpesvirus 3, HFF) [µg/mL]	IC50 [2, 5] [µg/mL]	IC50 [3] [µg/mL]	inhibition at 10 µg/mL [1, 6] [%]	IC50 [1, 7] [µg/mL]	IC50 ([2]; read-out: IC50 ug/ml HCMV) [µg/mL]
COc1ccc(NC(=S)Nc2ccc(NC(=O)c3ccccc3OC)cc2)cc1Cl [Example 818, N-{4-[3-(3-Chloro-4-methoxy-phenyl)-thioureido]-phenyl}-2-methoxy-benzamide]	32	> 10	4 (≈ 9.05 µM)	1.2 (≈ 2.72 µM)			
COc1cccc(C(=O)Nc2ccc(NC(=S)Nc3ccc(OC)c(Cl)c3)cc2)c1 [Example 819, N-{4-[3-(3-Chloro-4-methoxy-phenyl)-thioureido]-phenyl}-3-methoxy-benzamide]	93	2.5 (≈ 5.66 µM)	4 (≈ 9.05 µM)	6 (≈ 13.6 µM)			
COc1ccc(C(=O)Nc2ccc(NC(=S)Nc3ccc(OC)c(Cl)c3)cc2)cc1 [Example 820, N-{4-[3-(3-Chloro-4-methoxy-phenyl)-thioureido]-phenyl}-4-methoxy-benzamide]	20	> 10	8 (≈ 18.1 µM)	4 (≈ 9.05 µM)			
COc1ccc(NC(=S)Nc2ccc(NC(=O)c3cccc(F)c3)cc2)cc1Cl [Example 822, N-{4-[3-(3-Chloro-4-methoxy-phenyl)-thioureido]-phenyl}-3-fluoro-benzamide]	0	> 10	3 (≈ 6.98 µM)	3 (≈ 6.98 µM)			
COc1ccc(NC(=S)Nc2ccc(NC(=O)c3ccc(F)cc3)cc2)cc1Cl [Example 823, N-{4-[3-(3-Chloro-4-methoxy-phenyl)-thioureido]-phenyl}-4-fluoro-benzamide]	7	> 10	6 (≈ 14 µM)	6 (≈ 14 µM)			
COc1cc(OC)c(NC(=S)Nc2ccc(NC(=O)c3ccccc3F)cc2)cc1Br [Example 827, N-{4-[3-(5-Bromo-2,4-dimethoxy-phenyl)-thioureido]-phenyl}-2-fluoro-benzamide]	70	3.5 (≈ 6.94 µM)	10 (≈ 19.8 µM)	0.2 (≈ 0.397 µM)			
COc1cc(OC)c(NC(=S)Nc2ccc(NC(=O)c3ccccc3C)cc2)cc1Br [Example 829, N-{4-[3-(5-Bromo-2,4-dimethoxy-phenyl)-thioureido]-phenyl}-2-methyl-benzamide]	50	> 15	10 (≈ 20 µM)	0.25 (≈ 0.5 µM)			
COc1ccc(C(=O)Nc2ccc(NC(=S)Nc3cc(Br)c(OC)cc3OC)cc2)cc1 [Example 830, N-{4-[3-(5-Bromo-2,4-dimethoxy-phenyl)-thioureido]-phenyl}-4-methoxy-benzamide]	16	> 10	> 10	1.5 (≈ 2.9 µM)			
CSc1ccc(NC(=S)Nc2ccc(NC(=O)c3ccccc3F)cc2)cc1Cl [Example 847, N-{4-[3-(3-Chloro-4-methylsulfanyl-phenyl)-thioureido]-phenyl}-2-fluoro-benzamide]	65	> 10	0.3 (≈ 0.673 µM)	0.4 (≈ 0.897 µM)			
CSc1ccc(NC(=S)Nc2ccc(NC(=O)c3c(F)cccc3F)cc2)cc1Cl [Example 848, N-{4-[3-(3-Chloro-4-methylsulfanyl-phenyl)-thioureido]-phenyl}-2,6-difluoro-benzamide]	101	1.3 (≈ 2.8 µM)	0.3 (≈ 0.647 µM)	0.085 (≈ 0.183 µM)			
COc1cc(C)c(Cl)cc1NC(=S)Nc1ccc(NC(=O)c2ccccc2F)cc1 [Example 849, N-{4-[3-(5-Chloro-2-methoxy-4-methyl-phenyl)-thioureido]-phenyl}-2-fluoro-benzamide]	38	> 10	> 10	> 10			
COc1cc(C)c(Cl)cc1NC(=S)Nc1ccc(NC(=O)c2ccccc2C)cc1 [Example 850, N-{4-[3-(5-Chloro-2-methoxy-4-methyl-phenyl)-thioureido]-phenyl}-2-methyl-benzamide]	28	5 (≈ 11.4 µM)	2 (≈ 4.55 µM)	0.09 (≈ 0.205 µM)			
CN(C)c1ccc(NC(=S)Nc2ccc(NC(=O)c3ccccc3F)cc2)cc1Cl [Example 852, N-{4-[3-(3-Chloro-4-dimethylamino-phenyl)-thioureido]-phenyl}-2-fluoro-benzamide]	80	6.5 (≈ 14.7 µM)	0.6 (≈ 1.35 µM)	4 (≈ 9.03 µM)			
CN(c1ccc(NC(=S)Nc2ccc(NC(=O)c3ccccc3F)cc2)cc1Cl)C1CCN(Cc2ccccc2)C1 (stereo not shown) [Example 857, N-[4-(3-{4-[(1-Benzyl-pyrrolidin-3-yl)-methyl-amino]-3-chloro-phenyl)-thioureido)-phenyl]-2-fluoro-benzamide]	80	7 (≈ 11.9 µM)	6 (≈ 10.2 µM)	2 (≈ 3.4 µM)			
O=C(Nc1ccc(NC(=S)Nc2ccccc2)cc1)c1ccccc1F [Example 859, 2-Fluoro-N-[4-(3-phenyl-thioureido)-phenyl]-benzamide]				> 10	20	> 10	> 10
CC(O)c1ccc(NC(=S)Nc2ccc(NC(=O)c3ccccc3F)cc2)cc1Cl (stereo not shown) [Example 865, N-(4-{3-[3-Chloro-4-(1-hydroxy-ethyl)-phenyl]-thioureido}-phenyl)-2-fluoro-benzamide]	52	> 10	0.3 (≈ 0.676 µM)	4 (≈ 9.01 µM)			
CC(C)(C)c1cccc(NC(=S)Nc2ccc(NC(=O)c3ccccc3F)cc2)c1 [Example 869, N-{4-[3-(3-tert-Butyl-phenyl)-thioureido]-phenyl}-2-fluoro-benzamide]	77	3 (≈ 7.12 µM)	2.5 (≈ 5.93 µM)	5.5 (≈ 13 µM)			
COc1c(Cl)cc(NC(=S)Nc2ccc(NC(=O)c3cccc(F)c3)cc2)cc1Cl [Example 872, N-{4-[3-(3,5-Dichloro-4-methoxy-phenyl)-thioureido]-phenyl}-3-fluoro-benzamide]	28	> 10	0.6 (≈ 1.29 µM)	4 (≈ 8.61 µM)			
COc1ccccc1C(=O)Nc1ccc(NC(=S)Nc2cc(Cl)c(OC)c(Cl)c2)cc1 [Example 873, N-{4-[3-(3,5-Dichloro-4-methoxy-phenyl)-thioureido]-phenyl}-2-methoxy-benzamide]	23	> 10	0.3 (≈ 0.63 µM)	> 10			
COc1c(Cl)cc(NC(=S)Nc2ccc(NC(=O)c3ccccc3F)cc2)cc1Cl [Example 874, N-{4-[3-(3,5-Dichloro-4-methoxy-phenyl)-thioureido]-phenyl}-2-fluoro-benzamide]	75	3.5 (≈ 7.54 µM)	0.2 (≈ 0.431 µM)	5 (≈ 10.8 µM)			
COc1cccc(C(=O)Nc2ccc(NC(=S)Nc3cc(Cl)c(OC)c(Cl)c3)cc2)c1 [Example 875, N-{4-[3-(3,5-Dichloro-4-methoxy-phenyl)-thioureido]-phenyl}-3-methoxy-benzamide]	20	> 10	0.4 (≈ 0.84 µM)	6 (≈ 12.6 µM)			
COc1ccc(C(=O)Nc2ccc(NC(=S)Nc3cc(Cl)c(OC)c(Cl)c3)cc2)cc1 [Example 880, N-{4-[3-(3,5-Dichloro-4-methoxy-phenyl)-thioureido]-phenyl}-4-methoxy-benzamide]	30	> 10	10 (≈ 21 µM)	> 10			
O=C(Nc1ccc(NC(=S)Nc2ccc(C(F)(F)F)c(Cl)c2)cc1)c1ccccc1F [Example 911, N-{4-[3-(3-Chloro-4-trifluoromethyl-phenyl)-thioureido]-phenyl}-2-fluoro-benzamide]	38	> 10	8 (≈ 17.1 µM)	> 10			
O=C(Nc1ccc(NC(=S)Nc2ccc(Cl)c(Cl)c2)cc1)c1ccccc1F [Example 912, N-{4-[3-(3,4-Dichloro-phenyl)-thioureido]-phenyl}-2-fluoro-benzamide]	21	> 10	> 10	8 (≈ 18.4 µM)			
O=C(Nc1ccc(NC(=S)Nc2ccc(Br)c(Cl)c2)cc1)c1ccccc1F [Example 915, N-{4-[3-(4-Bromo-3-chloro-phenyl)-thioureido]-phenyl}-2-fluoro-benzamide]				> 10	29	> 10	> 10
O=C(Nc1ccc(NC(=S)Nc2ccc(I)c(Cl)c2)cc1)c1ccccc1F [Example 916, N-{4-[3-(3-Chloro-4-iodo-phenyl)-thioureido]-phenyl}-2-fluoro-benzamide]	30	> 10	3 (≈ 5.71 µM)	> 10			
O=C(Nc1ccc(NC(=S)Nc2ccc(F)c(Cl)c2)cc1)c1ccccc1F [Example 922, N-{4-[3-(3-Chloro-4-fluoro-phenyl)-thioureido]-phenyl}-2-fluoro-benzamide]	40	> 10	> 10	1 (≈ 2.39 µM)			
O=C(Nc1ccc(NC(=S)Nc2cc(Cl)ccc2Cl)cc1)c1ccccc1F [Example 931, N-{4-[3-(2,5-Dichloro-phenyl)-thioureido]-phenyl}-2-fluoro-benzamide]	51	> 10	> 10	4 (≈ 9.21 µM)			
